According to US20250345426A1, “METHODS FOR MAKING AND USING THERAPEUTIC CELLS” (THE REGENTS OF THE UNIVERSITY OF CALIFORNIA, priority 2022, published 2025):
Entries after “also recorded” stand apart in the source; their conditions may differ.

Key:
Leu16 CAR-T cells [1] = experiment: Antigen-independent activation and exhaustion marker expression by flow cytometry, Leu16 CAR-T cells; format: cell-based, human; conditions: equivalent concentrations as for rituximab CAR-T cells
Excerpt: (§1) FIG. 3A-G. Pharmacological modulation of Leu16 CAR-T cells modestly dampens tonic signaling while enhancing anti-tumor efficacy. (A) Pictorial representation of the correlation between tonic signaling-modulated rituximab CAR-T cells and in vivo anti-tumor efficacy. (B) Pictorial representation of pharmacological modulation strategy aimed to either increase or decrease Leu16 CAR tonic signaling; c-MYC (MYCi975) and SREBP (betulin) inhibition increased tonic signaling whereas mTORC1 (rapamycin) inhibition decreased tonic signaling in rituximab CAR-T cells. (C) % distribution of T-cell subtypes in CAR^+ T cells after 6 days of pharmacological modulation (left) and Tn/scm enrichment (right). […] (F) Tumor signal (in photons/sec/cm2/sr) in individual animals as quantified by bioluminescence imaging. […]
(§2) Antibody staining for flow-cytometry analysis. EGFRt expression was measured with biotinylated cetuximab (Eli Lilly; biotinylated in-house), followed by PE-conjugated streptavidin (Jackson ImmunoResearch #016-110-084). CAR expression was quantified by surface epitope staining using anti-Fc (Alexa Fluor 488, Jackson ImmunoResearch #709-546-098). […] T-cell subtype of CAR-T cells was evaluated by antibody staining for CD45RO (VioBlue®, clone REA611, Miltenyi #130-119-620) and CD62L (APC, clone DREG56, Invitrogen #17-0629-42) after 5-6 days of inhibitor culture (FIG. 1, FIG. 3). […]

Leu16 CAR-T cells [2] = experiment: T-cell subtype distribution and Tn/scm enrichment, Leu16 CAR-T cells; format: cell-based, human; conditions: 6 days of pharmacological modulation, relative to vehicle
Excerpt: as §1, §2

C=C(C)[C@@H]1CC[C@]2(CO)CC[C@]3(C)[C@H](CC[C@@H]4[C@@]5(C)CC[C@H](O)C(C)(C)[C@@H]5CC[C@]43C)[C@@H]12 [betulin, Betulin] was tested, and the tonic signaling (Leu16 CAR-T cells [1]) was “dampened; also recorded: significant decrease” and the “enrichment of Tn/scm cells” value (Leu16 CAR-T cells [2]) was “increased enrichment”.
For MYCi975, the tonic signaling (Leu16 CAR-T cells [1]) was “dampened” and the “enrichment of Tn/scm cells” value (Leu16 CAR-T cells [2]) was “increased enrichment”.
